In US8299021B2, “Macrocyclic inhibitors of hepatitis C virus replication” (InterMune, Inc., priority 2005, dated 2012):
Like-named read-outs stand apart in the source and are kept apart here.

Tests used:
[1] = tested on: HCV sub-genomic replicon GS4.3 (HuH-7 hepatoma cells); assay: Quantitation by ELISA of neomycin phosphotransferase II (NPTII) in the HCV sub-genomic replicon, GS4.3; format: cell-based
Description: Quantitation by ELISA of the Selectable Marker Protein, Neomycin Phosphotransferase II (NPTII) in the HCV Sub-Genomic Replicon, GS4.3
The HCV sub-genomic replicon (1377/NS3-3′, accession No. AJ242652), stably maintained in HuH-7 hepatoma cells, was created by Lohmann et al. Science 285: 110-113 (1999). The replicon-containing cell culture, designated GS4.3, was obtained from Dr. Christoph Seeger of the Institute for Cancer Research, Fox Chase Cancer Center, Philadelphia, Pa.
GS4.3 cells were maintained at 37° C., 5% CO2, in DMEM (Gibco 11965-092) supplemented with L-glutamine 200 mM (100×) (Gibco25030-081), non-essential amino acids (NEAA)(Biowhittaker 13-114E), heat-inactivated (HI) Fetal Bovine Serum(FBS)(Hyclone SH3007.03) and […] geneticin (G418)(Gibco 10131-035). Cells were sub-divided 1:3 or 4 every 2-3 days.
24 h prior to the assay, GS4.3 cells were collected, counted, and plated in 96-well plates (Costar 3585) at 7500 cells/well in 100 μl standard maintenance medium (above) and incubated in the conditions above. To initiate the assay, culture medium was removed, cells were washed once with PBS (Gibco 10010-023) and 90 μl Assay Medium (DMEM, L-glutamine, NEAA, 10% HI FBS, no G418) was added. Inhibitors were made as a 10× stock in Assay Medium, (3-fold dilutions from 10 μM to […] final concentration, final DMSO concentration 1%), 10 μl were added to duplicate wells, plates were rocked to mix, and incubated as above for 72 h.
An NPTII Elisa kit was obtained from AGDIA, Inc. (Compound direct ELISA test system for Neomycin Phosphotransferase II, PSP 73000/4800). Manufacturer's instructions were followed, with some modifications. 10×PEB-1 lysis buffer was made up to include 500 μM PMSF (Sigma P7626, 50 mM stock in isopropanol). After 72 h incubation, cells were washed once with PBS and 150 μlPEB-1 with PMSF was added per well. Plates were agitated vigorously for 15 minutes, room temperature, then frozen at −70° C. Plates were thawed, lysates were mixed thoroughly, and 100 μl were applied to an NPTII Elisa plate. A standard curve was made. Lysate from DMSO-treated control cells was pooled, serially diluted with PEB-1 with PMSF, and applied to duplicate wells of the ELISA plate, in a range of initial lysate amount of 150 ul-2.5 ul. In addition, 100 μl buffer alone was applied in duplicate as a blank. Plates were sealed and gently agitated at room temperature for 2 h. Following capture incubation, the plates were washed 5×300 μlwith PBS-T (0.5% Tween-20, PBS-T was supplied in the ELISA kit). For detection, a 1× dilution of enzyme conjugate diluent MRS-2 (5×) was made in PBS-T, into which 1:100 dilutions of enzyme conjugates A and B were added, as per instructions. Plates were resealed, and incubated with agitation, covered, room temperature, for 2 h. The washing was then repeated and 100 μlof room temperature TMB substrate was added. After approximately 30 minutes incubation (room temperature, agitation, covered), the reaction was stopped with 50 μl 3M sulfuric acid. Plates were read at 450 nm on a Molecular Devices Versamax plate reader.
Inhibitor effect was expressed as a percentage of DMSO-treated control signal, and inhibition curves were calculated using a 4-parameter equation: y=A+4B-A)/(1+((C/x)^13))), where C is half-maximal activity or EC50.

[2] = target: T1, NS3-NS4 protease (full-length NS3/NS4A-2) (Hepatitis C virus genotype 1a, UniProt P27958); assay: NS3-NS4 protease assay / NS3 inhibition assay (RETS1 substrate, fluorescence kinetic read); format: biochemical; conditions: read-out: NS3-NS4 IC50
T1 construct: Recombinant E. coli or Baculovirus full-length NS3 was diluted to 3.33 μM with assay buffer; made in house; host or cells: E. coli or baculovirus (insect cells)
T1 sequence (P27958 1027-1657): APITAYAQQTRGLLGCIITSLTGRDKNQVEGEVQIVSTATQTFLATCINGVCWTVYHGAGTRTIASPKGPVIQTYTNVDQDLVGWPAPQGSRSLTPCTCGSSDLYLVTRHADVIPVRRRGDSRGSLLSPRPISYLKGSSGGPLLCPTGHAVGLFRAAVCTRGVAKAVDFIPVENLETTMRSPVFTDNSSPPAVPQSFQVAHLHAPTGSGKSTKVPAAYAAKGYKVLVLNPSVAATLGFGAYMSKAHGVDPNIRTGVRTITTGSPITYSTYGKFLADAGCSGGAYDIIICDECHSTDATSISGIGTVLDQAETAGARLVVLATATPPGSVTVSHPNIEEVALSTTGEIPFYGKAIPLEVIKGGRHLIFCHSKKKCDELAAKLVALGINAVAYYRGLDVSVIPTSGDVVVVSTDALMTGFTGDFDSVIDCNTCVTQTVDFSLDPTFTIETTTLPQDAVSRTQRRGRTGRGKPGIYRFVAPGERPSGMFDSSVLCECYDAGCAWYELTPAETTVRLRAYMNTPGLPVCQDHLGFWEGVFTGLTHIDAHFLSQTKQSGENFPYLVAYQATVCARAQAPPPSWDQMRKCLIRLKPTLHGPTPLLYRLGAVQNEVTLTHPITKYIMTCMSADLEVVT
Method: NS3 complex formation with NS4A-2.
The appropriate amount of NS4A-2 to 8.3 mM in assay buffer was added to equal the volume of NS3 in step 2.1.1 (conversion factor—3.8 mg/272 μL assay buffer). The material was transferred to an eppendorf tube and place in water bath in 4° C. refrigerator.
After equilibration to 4° C., equal volumes of NS3 and NS4A-2 solutions were combined in an eppendorf tube, mix gently with a manual pipettor, and incubate mixture for 15 minutes in the 4° C. water bath.
After 15 minutes at 4° C., the NS3/NS4A-2 eppendorf tube was removed and place it in a room temperature water bath for 10 minutes. NS3/NS4A-2 was alliquoted at appropriate volumes and store at −80° C. (E. coli NS3 run at 2 nM in assay, aliquot at 25 μL. BV NS3 run at 3 nM in assay, aliquot at 30 μL).
Sample compounds were dissolved to 10 mM in DMSO then diluted to 2.5 mM (1:4) in DMSO.
The E. coli. […] Using the manual multichannel pipettor, careful not to introduce bubbles into the plate, add 50 μL assay buffer to wells A01-H01 of a black Costar 96-well polypropylene storage plate.
Using the manual multichannel pipettor, careful not to introduce bubbles into the plate, add 50 μL of diluted NS3/NS4A-2 from step 2.2.6 to wells A02-H12 of plate in step 2.2.7. Using the manual multichannel pipettor, careful not to introduce bubbles into the plate, transfer 25 μL of the wells in drug dilution plate in step 2.2.5 to corresponding wells in assay plate in step 2.2.8. Change tips on multichannel pipettor for each row of compounds transferred. Using the manual multichannel pipettor, careful not to introduce bubbles into the plate, mix the wells from the assay plate in step 2.2.9 by aspirating and dispensing 35 μL of the 75 μL in each well five times. Change tips on multichannel pipettor for each row of wells mixed. Cover plate with a polystyrene plate lid and pre-incubate the plate from step 2.2.10 containing NS3 protease and sample compounds 10 minutes at room temperature. While plate from step 2.2.11 is pre-incubating, dilute RETS1 substrate in a 15 mL polypropylene centrifuge tube.
After the plate in step is done pre-incubating, and using the manual multichannel, add 25 μL of substrate to all wells on the plate. Quickly mix the plate as in step 2.2.10, mixing 65 μL of the 100 μL in the wells.
Read the plate in kinetic mode on the Molecular Devices SpectraMax
IC50s are determined using a four parameter curve fit equation, and converted to Ki's using the following Km's:
where Ki=IC50/(1+[S]/Km))

[3] = Hepatitis C virus, Huh-7, GS4.3 cells, 72 h, read-out: Replicon EC50
[4] = Hepatitis C virus, Huh-7, Table 26, read-out: EC50
[5] = GS4.3 cells, 72 h, read-out: Replicon EC50
[6] = Hepatitis C virus, Huh-7, 72 h, read-out: Replicon EC50

CC(C)(C)OC(=O)NC1CCCCC/C=C\[C@H]2C[C@@]2(C(=O)NS(=O)(=O)NCC(F)(F)F)NC(=O)C2CC(OC(=O)N3Cc4cccc(Cl)c4C3)CN2C1=O (single isomer, unassigned) [Compound 226]
EC50 [1, 3]: < 100 nM | IC50 [2]: < 100 nM

O=C1N[C@]2(C(=O)NS(=O)(=O)C3CC3)C[C@H]2/C=C\CCCCC[C@H](NCc2ccc(CO)o2)C(=O)N2C[C@H](OC(=O)N3Cc4cccc(F)c4C3)C[C@@H]12 [Compound 913]
EC50 [1, 3]: < 1000 nM | IC50 [2]: < 100 nM

CC(C)(C)OC(=O)N[C@H]1CCCCC/C=C\[C@@H]2C[C@@]2(C(=O)NS(=O)(=O)C2CC2)NC(=O)[C@@H]2CCCN2C1=O [Compound 2137, 1S,4R,6S,14S)tert-but 14-Cyclopropanesulfonylaminocarbonyl-2,15-dioxo-3,16-diaza-tricyclo[14.3.0.0^4,6]nonadec-7-ene-14-yl carbamate]
EC50 [1, 4]: > 10000 nM | IC50 [2]: > 10000 nM

CC(C)(C)OC(=O)N[C@H]1CCCCC/C=C\[C@@H]2C[C@@]2(C(=O)NS(=O)(=O)C2CC2)NC(=O)C2C[C@@H](OC(=O)NCc3ccc(F)cn3)CN2C1=O (stereo partly shown) [Compound 152]
EC50 [1, 3]: > 10000 nM | IC50 [2]: < 100 nM

CC(C)(C)OC(=O)N[C@H]1CCN(S(=O)(=O)c2ccccc2[N+](=O)[O-])CC/C=C\[C@@H]2C[C@@]2(C(=O)O)NC(=O)[C@@H]2C[C@@H](OC(=O)N3Cc4cccc(F)c4C3)CN2C1=O [Compound 1029]
EC50 [1, 3]: < 10000 nM | IC50 [2]: < 100 nM

CC(C)(C)OC(=O)N[C@H]1CCCOC/C=C\[C@@H]2C[C@@]2(C(=O)NS(=O)(=O)C2CC2)NC(=O)[C@@H]2C[C@@H](OC(=O)N3Cc4cccc(F)c4C3)CN2C1=O [Compound 1021, (2R,6S,13aS,14aR,16aS,Z)-6-(tert-butoxycarbonylamino)-14a-(cyclopropylsulfonylcarbamoyl)-5,16-dioxo-2,3,5,6,7,8,9,11,13a,14,14a,15,16,16a-tetradecahydro-1H-cyclopropa(e)pyrrolo[2,1-i][1,7,10]oxadiazacyclopentadecin-2-yl 4-fluoroisoindoline-2-carboxylate]
EC50 [1, 5]: > 10000 nM | IC50 [2]: < 10000 nM

C[C@@H](NC(=O)O[C@@H]1C[C@H]2C(=O)N[C@]3(C(=O)NS(=O)(=O)C4CC4)C[C@H]3/C=C\CCCCC[C@H](NC(=O)OC(C)(C)C)C(=O)N2C1)c1ccc(F)cn1 [Compound 150]
EC50 [1, 5]: > 10000 nM | IC50 [2]: < 100 nM

CC(C)(C)OC(=O)N[C@H]1CCCCC/C=C\[C@@H]2C[C@@]2(C(=O)NC(=O)c2ccccc2)NC(=O)[C@@H]2C[C@@H](OC(=O)N3Cc4ccccc4C3)CC2C1=O (stereo partly shown) [Compound 705]
EC50 [1, 3]: < 100 nM | IC50 [2]: < 100 nM

CC(C)(C)OC(=O)N[C@H]1CCC(F)(F)CCCC[C@@H]2C[C@@]2(C(=O)NS(=O)(=O)C2CC2)NC(=O)[C@@H]2C[C@@H](OC(=O)N3Cc4cccc(F)c4C3)CN2C1=O [Compound 1010, (2R,6S,13aS,14aR,16aS,Z)-6-(tert-butoxycarbonylamino)-14a-(cyclopropylsulfonylcarbamoyl)-9,9-difluoro-5,16-dioxooctadecahydrocyclopropa (e) prrolo[1,2-a][1,4]diazacyclopentadecine 2-yl 4-fluoroisoindoline-2-carboxylate]
EC50 [1, 3]: < 100 nM | IC50 [2]: < 100 nM

O=C(CCC(F)(F)F)N[C@H]1CCCCC/C=C\[C@@H]2C[C@@]2(C(=O)NS(=O)(=O)C2CC2)NC(=O)[C@@H]2CCCN2C1=O [Compound 2139]
EC50 [1, 4]: < 1000 nM | IC50 [2]: > 10000 nM

CC(C)(C)C(O)C(=O)NC1CCCCCC=CC2CC2(C(=O)NS(=O)(=O)C2CC2)NC(=O)C2CC(OC(=O)N3Cc4cccc(F)c4C3)CN2C1=O (single isomer, unassigned) [Compound 248]
EC50 [1, 3]: < 1000 nM

O=C1N[C@]2(C(=O)NS(=O)(=O)C3CC3)C[C@H]2/C=C\CCCCC[C@H](Nc2c(N3C4CCC3CC4)c(=O)c2=O)C(=O)N2C[C@H](OC(=O)N3Cc4cccc(F)c4C3)C[C@@H]12 [Compound 199]
EC50 [1, 6]: < 10000 nM

CC(C)(C)OC(=O)N[C@H]1CCCCC/C=C\[C@@H]2C[C@@]2(C(=O)O)NC(=O)C2C[C@@H](OC(=O)N3Cc4cccc(Cl)c4C3)CN2C1=O (stereo partly shown) [Compound 177]
EC50 [1, 3]: < 10000 nM | IC50 [2]: < 100 nM

O=C1N[C@]2(C(=O)NS(=O)(=O)C3CC3)C[C@H]2/C=C\CCCCC[C@H](NC(=O)C2(C(F)(F)F)CC2)C(=O)N2C[C@H](OC(=O)N3Cc4cccc(Cl)c4C3)C[C@@H]12 [Compound 265]
EC50 [1, 3]: < 100 nM | IC50 [2]: < 100 nM

O=C1N[C@]2(C(=O)NS(=O)(=O)C3CC3)C[C@H]2/C=C\CCCCC[C@H](NC(=S)NC2CCCC2)C(=O)N2CC(OC(=O)N3Cc4cccc(F)c4C3)C[C@@H]12 (stereo partly shown) [Compound 240]
EC50 [1, 3]: < 1000 nM

COc1ccc(S(=O)(=O)NC(=O)[C@@]23C[C@H]2/C=C\CCCCC[C@H](NC(=O)OC2CCCC2)C(=O)N2C[C@H](OC(=O)N4CCc5ccccc5C4)C[C@H]2C(=O)N3)cc1 [Compound 120]
EC50 [1, 6]: < 100 nM

COc1cccc(S(=O)(=O)NC(=O)[C@@]23C[C@H]2/C=C\CCCCC[C@H](NC(=O)OC2CCCC2)C(=O)N2C[C@H](OC(=O)N4CCc5ccccc5C4)C[C@H]2C(=O)N3)c1 [Compound 188]
EC50 [1, 6]: < 100 nM

N[C@H]1CCCCC/C=C\[C@@H]2C[C@@]2(C(=O)NS(=O)(=O)C2CC2)NC(=O)C2C[C@@H](OC(=O)N3Cc4c(Cl)ccc(Cl)c4C3)CN2C1=O (stereo partly shown) [Compound 156]
EC50 [1, 3]: < 1000 nM

O=C1N[C@]2(C(=O)NS(=O)(=O)C3CC3)C[C@H]2/C=C\CCCCC[C@H](NC(=O)N2CCCC2)C(=O)N2CC(OC(=O)N3Cc4cccc(F)c4C3)C[C@@H]12 (stereo partly shown) [Compound 243]
EC50 [1, 3]: < 100 nM
